Assay results: US6608086B2, “Dihydropyridines and new uses thereof” (Synaptic Pharmaceutical Corporation, priority 1993, dated 2003)
Where a name gives a salt, the structure may show the parent alone. Read-outs that look alike come from different tables or passages of the source.

How the values were obtained:
[1] = target: T1, α1B Human Adrenergic Receptor (Homo sapiens, UniProt P35368); assay: Radioligand binding, [3H]prazosin, cloned human α1B adrenergic receptor
T1 construct: The entire coding region of α1B (1563 bp); expressed in transfected cells
T1 sequence (P35368 1-520): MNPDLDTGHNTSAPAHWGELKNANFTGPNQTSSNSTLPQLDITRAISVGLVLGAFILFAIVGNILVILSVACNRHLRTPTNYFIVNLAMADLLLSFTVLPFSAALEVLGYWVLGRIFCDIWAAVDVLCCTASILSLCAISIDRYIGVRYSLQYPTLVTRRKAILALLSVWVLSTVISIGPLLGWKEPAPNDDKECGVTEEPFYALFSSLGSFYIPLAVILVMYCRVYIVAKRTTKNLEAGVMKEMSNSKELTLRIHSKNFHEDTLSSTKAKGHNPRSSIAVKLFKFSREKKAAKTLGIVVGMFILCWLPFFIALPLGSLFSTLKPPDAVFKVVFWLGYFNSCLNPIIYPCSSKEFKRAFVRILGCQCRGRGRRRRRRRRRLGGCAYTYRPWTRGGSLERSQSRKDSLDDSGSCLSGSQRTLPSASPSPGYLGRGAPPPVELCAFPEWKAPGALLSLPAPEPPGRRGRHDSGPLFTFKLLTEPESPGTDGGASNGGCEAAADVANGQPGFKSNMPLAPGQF
Procedure, shortened: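 Membranes from stably transfected LM(tk−) cells, resuspended in 50 mM Tris-HCl, 1 mM MgCl2, 0.1% ascorbic acid, pH 7.5, were incubated with 0.5 nM [3H]prazosin for 20 min at 37° C. Nonspecific binding defined with 10 μM phentolamine; bound ligand separated by GF/B filtration.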

[2] = target: T2, α1C Human Adrenergic Receptor (Homo sapiens, UniProt P35348); assay: Radioligand binding, [3H]prazosin, cloned human α1C adrenergic receptor
T2 construct: The entire coding region of α1C (1401 bp); expressed in transfected cells
T2 sequence (P35348 1-466): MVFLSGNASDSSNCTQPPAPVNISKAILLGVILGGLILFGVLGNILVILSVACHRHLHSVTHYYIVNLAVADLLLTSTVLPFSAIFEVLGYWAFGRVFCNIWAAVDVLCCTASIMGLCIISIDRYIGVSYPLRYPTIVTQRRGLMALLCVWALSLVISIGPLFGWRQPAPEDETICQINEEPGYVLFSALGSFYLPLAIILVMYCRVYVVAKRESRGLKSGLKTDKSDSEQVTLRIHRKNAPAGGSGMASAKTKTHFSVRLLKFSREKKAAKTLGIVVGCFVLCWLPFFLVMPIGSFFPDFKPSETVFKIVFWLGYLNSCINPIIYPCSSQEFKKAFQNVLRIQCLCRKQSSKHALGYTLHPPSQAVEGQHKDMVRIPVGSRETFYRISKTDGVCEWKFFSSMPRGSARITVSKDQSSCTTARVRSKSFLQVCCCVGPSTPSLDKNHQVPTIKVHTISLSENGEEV
Procedure, shortened: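 Stably transfected mouse LM(tk−) fibroblast membranes bearing the cloned human α1C adrenoceptor served as receptor source. Specific binding was taken as the portion of 0.5 nM [3H]prazosin displaceable by 10 μM phentolamine after 20 min at 37° C., pH 7.5, in Mg2+/ascorbate-containing Tris buffer.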

α2A receptor = target: T3, α2A receptor (Homo sapiens, UniProt P08913); assay: Competition binding, [3H]rauwolscine, human α2A receptor
T3 construct: host or cells: LM(tk-) cells, line L-α2A
T3 sequence (P08913 1-465): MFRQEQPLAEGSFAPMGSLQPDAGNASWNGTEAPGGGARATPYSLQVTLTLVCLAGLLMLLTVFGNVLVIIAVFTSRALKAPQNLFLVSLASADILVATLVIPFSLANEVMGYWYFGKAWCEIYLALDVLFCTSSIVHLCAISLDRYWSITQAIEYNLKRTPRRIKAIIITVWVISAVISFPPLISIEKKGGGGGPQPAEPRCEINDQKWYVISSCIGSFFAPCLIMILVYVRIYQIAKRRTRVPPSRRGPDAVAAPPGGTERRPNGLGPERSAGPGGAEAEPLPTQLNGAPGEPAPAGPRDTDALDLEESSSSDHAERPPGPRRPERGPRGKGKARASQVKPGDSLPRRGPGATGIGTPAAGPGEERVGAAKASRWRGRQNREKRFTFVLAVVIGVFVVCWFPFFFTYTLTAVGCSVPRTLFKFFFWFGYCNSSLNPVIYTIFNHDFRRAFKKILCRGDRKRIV
Procedure, shortened: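 Lysates of LM(tk−) cells stably expressing each α2 subtype were suspended in 25 mM glycylglycine buffer (pH 7.6 at room temperature). Equilibrium competition binding used 0.5 nM [3H]rauwolscine, with nonspecific binding defined by 10 μM phentolamine; bound radioligand was separated by GF/B filtration.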

[3] = pKi alpha-1 1b, cloned human receptor in LM(tk-) cell membranes, SEM and n in lines below
[4] = cloned human receptor in LM(tk-) cell membranes, SEM and n in lines below, read-out: pKi alpha-1 1c (converted)
[5] = [3H]rauwolscine, LM(tk-) cell line L-α2A, SEM and n in lines below, read-out: pKi alpha-2 2a (converted)
[6] = pKi alpha-1 1c, cloned human receptor in LM(tk-) cell membranes, SEM and n in lines below
[7] = cloned human receptor in LM(tk-) cell membranes, SEM and n in lines below, read-out: pKi alpha-1 1b (converted)
[8] = cloned human α1B receptor, LM(tk−) cell membranes, read-out: pKi alpha-1 1b (converted)
[9] = cloned human α1C receptor, LM(tk−) cell membranes, read-out: pKi alpha-1 1c (converted)
[10] = pKi alpha-1 1b, cloned human α1B receptor, LM(tk−) cell membranes
[11] = pKi alpha-1 1c, cloned human α1C receptor, LM(tk−) cell membranes
[12] = [3H]rauwolscine, human α2A receptor, LM(tk−) cells, read-out: pKi alpha-2 2a (converted)

SMILES | Ki (α2A receptor) [nM] | Ki [1, 8] [nM] | Ki [2, 9] [nM] | Ki [1, 10] [nM] | Ki [2, 11] [nM] | Ki (α2A receptor; [12]) [nM] | other results
CC1=C(C(N)=O)C(c2cccc([N+](=O)[O-])c2)C(C(=O)NCCCN2CCC(c3ccccc3)(c3ccccc3)CC2)=C(C)N1 (stereo not drawn) [Example 61, 5-Carboxamido-1,4-dihydro-2,6-dimethyl-4-(3-nitrophenyl)-3-{N-[3-(4,4-diphenylpiperidin-1-yl)propyl]}carboxamidopyridine] | – | – | – | – | – | – | Ki [1, 3]: 427 nM; Ki [2, 4]: 3.8 nM; Ki (α2A receptor; [5]): 759 nM
CC1=C(C(=O)NCCCN2CCC(c3ccccc3)(c3ccccc3)CC2)C(c2ccc([N+](=O)[O-])cc2)c2c([nH]c(=O)[nH]c2=O)N1 (stereo not drawn) [Example 64] | – | – | – | – | – | – | Ki [1, 3]: 355 nM; Ki [2, 6]: 35.5 nM; Ki (α2A receptor; [5]): 692 nM
CCC1=C(C(=O)NCCCN2CCC(c3ccccc3)(c3ccccc3)CC2)C(c2ccc([N+](=O)[O-])cc2)C(C(=O)OC)=C(C)N1 (stereo not drawn) [Example 73, 2-Ethyl-1,4-dihydro-5-methoxycarbonyl-6-methyl-4-(4-nitro) phenyl-3-(N-(3-(4,4-diphenylpiperidin-1-yl)propyl))carboxamidopyridine] | 794 | – | – | – | – | – | Ki [1, 7]: 148 nM; Ki [2, 4]: 0.661 nM
COC(=O)C1=C(C)NC(c2ccccc2)=C(C(=O)NCCCN2CCC(c3ccccc3)(c3ccccc3)CC2)C1c1ccc([N+](=O)[O-])cc1 (stereo not drawn) [Example 78, 1,4-Dihydro-5-methoxycarbonyl-6-methyl-4-(4-nitro)phenyl-2-phenyl-3-(N-(3-(4,4-diphenylpiperidin-1-yl)propyl))carboxamidopyridine hydrochloride hydrate] | 724 | – | – | – | – | – | Ki [1, 7]: 110 nM; Ki [2, 4]: 4.27 nM
CCC1=C(C(=O)NCCCN2CCC(c3ccccc3)(c3ccccc3)CC2)C(c2ccc([N+](=O)[O-])cc2)C(C(N)=O)=C(C)N1 (stereo not drawn) [Example 81, 5-carboxamido-2-ethyl-1,4-dihydro-6-methyl-4-(4-nitro)phenyl-3-(N-(3-(4,4-diphenylpiperidin-1-yl)propyl))carboxamidopyridine hydrochloride] | – | – | – | – | – | – | Ki [1, 3]: 240 nM; Ki [2, 6]: 1.91 nM; Ki (α2A receptor; [5]): 178 nM
CCOC(=O)C1=C(CC(=O)NCCCN2CCC(c3ccccc3)(c3ccccc3)CC2)NC(C)=C(C(=O)OC)C1c1ccc([N+](=O)[O-])cc1 (stereo not drawn) [Example 89, 3-Ethoxycarbonyl-1,4-dihydro-5-methoxycarbonyl-6-methyl-4-(4-nitro)phenyl-2-(N-(3-(4,4,-diphenylpiperidin-1-yl)propyl)carboxamido)methylpyridine, fumarate salt] | 2340 | 141 | 501 | – | – | – | –
COC(=O)C1=C(C)N(C)C(C)=C(C(=O)OCCCN2CCC(c3ccccc3)(c3ccccc3)CC2)C1c1ccc([N+](=O)[O-])cc1 (stereo not drawn) [Example 92, 1,4-Dihydro-5-methoxycarbonyl-1,2,6-trimethyl-4-(4-nitrophenyl)-3-[3-(4,4-diphenylpiperidin-1-yl)propoxy]carbonylpyridine hydrochloride hydrate] | 3160 | 58.9 | 3.09 | – | – | – | –
COc1ccc(C2(c3ccccc3)CCN(CCCNC(=O)C3=C(C)NC(C)=C(C(N)=O)C3c3ccc([N+](=O)[O-])cc3)CC2)cc1 (stereo not drawn) [Example 98, 5-Carboxamido-1,4-dihydro-3-{N-[3-(4-(4-methoxyphenyl)-4-phenylpiperidin-1-yl)propyl]}carboxamido-2,6-dimethyl-4-(4-nitrophenyl)pyridine hydrochloride] | – | – | – | 302 | 4.79 | 355 | –
CCC1=C(C(N)=O)C(c2ccc([N+](=O)[O-])cc2)C(C(=O)NCCCN2CCC(O)(c3ccccc3)CC2)=C(CC)N1 (stereo not drawn) [Example 100, 5-Carboxamido-2,6-diethyl-1,4-dihydro-3-{N-(3-(4-hydroxy-4-phenylpiperidin-1-yl)propyl]}carboxamido-4-(4-nitrophenyl)pyridine hydrochloride hydrate] | – | – | – | 1480 | 4.37 | 794 | –
CCC1=C(C(N)=O)C(c2ccc([N+](=O)[O-])cc2)C(C(=O)NCCCN2CCC(c3ccc(OC)cc3)(c3ccc(OC)cc3)CC2)=C(CC)N1 (stereo not drawn) [Example 103, 5-Carboxamido-2,6-diethyl-1,4-dihydro-3-{N-[3-(4,4-bis-(4-methoxyphenyl)piperidin-1-yl)propyl]}carboxamido}-4-(4-nitrophenyl)pyridine hydrochloride] | 490 | 182 | 10.7 | – | – | – | –
CCC1=C(C(N)=O)C(c2ccc([N+](=O)[O-])cc2)C(C(=O)NCCCN2CCC3(CC2)C(=O)NCN3c2ccccc2)=C(CC)N1 (stereo not drawn) [Example 105, 5-Carboxamido-2,6-diethyl-1,4-dihydro-4-(4-nitrophenyl)-3-{N-[3-(1-phenyl-4-oxo-1,3,8-triazaspiro[4.3]decan-8-yl)propyl]}carboxamidopyridine hydrochloride hydrate] | 1260 | 3160 | 692 | – | – | – | –
CCC1=C(C(N)=O)C(c2ccc([N+](=O)[O-])cc2)C(C(=O)NCCCN2CCC(C)(c3ccccc3)CC2)=C(CC)N1 (stereo not drawn) [Example 106, 5-Carboxamido-2,6-diethyl-1,4-dihydro-3-{N-[3-(4-Methyl-4-phenylpiperidin-1-yl)propyl]}carboxamido-4-(4-nitrophenyl)pyridine hydrochloride hydrate] | – | – | – | 933 | 15.1 | 324 | –
CCC1=C(C(=O)NCCCN2CCC(c3ccccc3)(c3ccccc3)CC2)C(c2cccc(OC)c2)C(C(=O)NCCCN2CCC(c3ccccc3)(c3ccccc3)CC2)=C(CC)N1 [Example 112, 2,6-Diethyl-1,4-dihydro-4-(3-methoxyphenyl)-3,5-bis(N-(3-(4,4-diphenylpiperidin-1-yl)propyl)carboxamido)-pyridine] | – | – | – | 23.4 | 24.5 | 257 | –
CCC1=C(C(=O)NCCCN2CCC(c3ccccc3)(c3ccccc3)CC2)C(c2cccc(OC)c2)C(C(N)=O)=C(C)N1 (stereo not drawn) [Example 113, 5-Carboxamide-2-ethyl-1,4-dihydro-4-(3-methoxyphenyl)-6-methyl-3-(N-(3-(4,4-diphenylpiperidin-1-yl)propyl)carboxamido)-pyridine] | – | – | – | 347 | 17.8 | 759 | –
CCC1=C(C(=O)NCCCN2CCC(c3ccccc3)(c3ccccc3)CC2)C(c2ccc(N)cc2)C(C(=O)OC)=C(C)N1 (stereo not drawn) [Example 114, 4-(4-Aminophenyl)-2-ethyl-1,4-dihydro-5-methoxycarbonyl-6-methyl-3-(N-(3-(4,4-diphenylpiperidin-1-yl)propyl)carboxamido)-pyridine] | 2090 | 204 | 10.2 | – | – | – | –
